Patent publication US20050228020A1, “Beta secretase inhibitors” (priority 2000, published 2005)
Structures can show the parent of a compound that is named as a salt.

Biological target: T1, recombinant human β secretase (Homo sapiens, UniProt P56817)
T1 construct: made in house; host or cells: COS7 cells transfected with pBACE2; membrane fraction solubilised with octyl-β-glucoside, purified with anti-Flag antibody
Assay: Measurement of inhibitory activity on β secretase (fluorogenic peptide substrate cleavage)
Assay type: biochemical
Source text: The PCR product was subjected to agarose gel electrophoresis, and about a 700-b DNA fragment was recovered. The fragment was cloned with a Zero Blunt TOPO PCR Cloning Kit (Invitrogen). The resultant plasmid was digested with restriction enzymes APaI (Takara Shuzo) and KpnI (Takara Shuzo) and then subjected to agarose gel electrophoresis to recover about a 250-b DNA fragment. […] These DNA fragments were mixed with an animal cell expression plasmid pcDNA3.1 (−) (Funakoshi) digested with API and KpnI, then ligated by use of Ligation High (Toyobo), and used to transform E. coli JM109 competent cells (Takara Shuzo) to give plasmid pBACE1. […] The PCR product was subjected to agarose gel electrophoresis, and about a 170-b DNA fragment was recovered. The fragment was cloned with a Zero Blunt TOPO PCR Cloning Kit (Invitrogen). The resultant plasmid was digested with restriction enzymes APaI (Takara Shuzo) and BbeI (Takara Shuzo) and then subjected to agarose gel electrophoresis, to recover about a 120-b DNA fragment. pBACE1 was digested with the same enzymes and subjected to agarose gel electrophoresis to recover about a 1.1-kb DNA fragment. Further, pBACE1 was digested with APaI and subjected to agarose gel electrophoresis to recover about a 5.7-kb DNA fragment. These 3 fragments were ligated by use of Ligation High (Toyobo), and used to transform E. coli JM109 competent cells (Takara Shuzo) to give plasmid pBACE2.
15 μg of Human β secretase expression plasmid pBACE2 and 45 μl of Fugene 6 (Roche Diagnostics) were allowed to stand in 1.5 ml D-MEM medium for 15 minutes at room temperature, and this mixture was added to COS7 cells previously grown in D-MEM medium (Nikken Seibutsu Igaku Kenkyusho) containing 10% fetal bovine serum (LifeTech Oriental) in a Tissue culture flask 150 ml (Becton, Dickinson & Co). […] The disrupted solution was centrifuged (500 g, 10 minutes), the supernatant was ultracentrifuged (100,000 g, 45 minutes), and the precipitates were lyzed (4° C., 2.5 hours) with 0.5 ml lyzing buffer (0.01 M Tris-HCl (pH 8), 0.05 M octyl-β-glucoside, 1 mM EDTA, 0.5 mM PMSF) and then ultracentrifuged (100,000 g, 45 minutes). The supernatant was purified with 100 μl anti-Flag antibody (Sigma).

[1] = substrate Nma-Ser-Glu-Val-Asn-Leu-Asp-Ala-Glu-Lys(Dnp)-Arg-Arg-NH2, 0.05 M acetate buffer pH 4.5, 37° C. for 22 hours, fluorescence 325/460

T1 sequence (P56817 with tags, fused parts or gaps): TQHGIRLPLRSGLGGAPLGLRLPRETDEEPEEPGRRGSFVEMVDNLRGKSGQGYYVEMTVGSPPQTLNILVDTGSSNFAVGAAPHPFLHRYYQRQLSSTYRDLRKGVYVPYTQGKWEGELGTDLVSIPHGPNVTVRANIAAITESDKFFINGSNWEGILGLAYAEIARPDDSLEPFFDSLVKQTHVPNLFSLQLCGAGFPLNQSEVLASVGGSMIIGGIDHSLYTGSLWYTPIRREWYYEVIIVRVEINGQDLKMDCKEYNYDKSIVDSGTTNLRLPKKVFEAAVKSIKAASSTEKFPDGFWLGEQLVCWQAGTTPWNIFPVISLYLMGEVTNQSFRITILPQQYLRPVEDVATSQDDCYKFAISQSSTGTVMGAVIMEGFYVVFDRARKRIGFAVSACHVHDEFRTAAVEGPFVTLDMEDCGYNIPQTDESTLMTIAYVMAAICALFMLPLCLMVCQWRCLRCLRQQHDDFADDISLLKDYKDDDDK

IC50 [1] | IC50 (pH 4.5) | Compound
2930 nM |  | CN(C)CC[C@@H]1CCc2cc(OCc3ccc(-c4ccccc4)cc3)ccc2C1 [Compound A, (R)-(+)-6-(4-Biphenylyl)methoxy-2-[2-(N,N-dimethylamino)ethyl]tetralin hydrochloride·1H2O]
1050 nM |  | NCCC1CCc2cc(OCc3ccc(-c4ccccc4)cc3)ccc2C1 (stereo not drawn) [I]
1290 nM |  | CNCCC1CCc2cc(OCc3ccc(-c4ccccc4)cc3)ccc2C1 (stereo not drawn) [Compound C]

The remaining lines, values behind:

Compound | IC50 [1] | IC50 (pH 4.5)
C[N+](C)([O-])CCC1CCc2cc(OCc3ccc(-c4ccccc4)cc3)ccc2C1 (stereo not drawn) [H] | 616 nM | 
Cc1ccc(-c2ccc(COc3ccc4c(c3)CC[C@@H](CCN(C)C)C4)cc2)cc1 [J] | 857 nM | 
CCN(C)CCC1CCc2cc(OCc3ccc(-c4ccccc4)cc3)ccc2C1 (stereo not drawn) [D] | 945 nM | 
c1ccc(-c2ccc(COc3ccc4c(c3)CCC(CCn3ccnc3)C4)cc2)cc1 (stereo not drawn) [G] | 856 nM | 
c1ccc(-c2ccc(COc3ccc4c(c3)CCC(CCN3CCCCC3)C4)cc2)cc1 (stereo not drawn) [F] |  | 349 nM
c1ccc(-c2ccc(COc3ccc4c(c3)CCC(CCN3CCCC3)C4)cc2)cc1 (stereo not drawn) [E] | 1120 nM | 
